In US9748593B2, “Polymer electrolyte composition, and polymer electrolyte membrane, membrane electrode complex and solid polymer-type fuel cell each produced using same” (TORAY INDUSTRIES, INC., priority 2012, dated 2017):
Converted amounts (≈) assume the structure as drawn.

Experiment: physchem
Settings: 60 °C, thermodynamic from solid
Procedure: • (6) Solubility of Nitrogen-Containing Additive
After 100 mg of the nitrogen-containing additive and 1 L of a solvent were mixed, the resulting mixture was stirred at a rotational speed of 200 rpm at 60° C. for 1 hour using a mixing machine to dissolve the nitrogen-containing additive.

| solubility at 1 h (aqueous buffer) | solubility at 1 h (water) | Structure (SMILES) |
| --- | --- | --- |
| ≥ 100 µg/mL | ≥ 100 µg/mL | c1cnc2c(c1)ccc1cccnc12 [1,10-phenanthroline, reference compound] |
| ≥ 100 µg/mL | ≥ 100 µg/mL | Nc1cc2cccnc2c2ncccc12 [5-amino-1,10-phenanthroline, reference compound] |
| 3.4 µg/mL (≈ 5.8 µM) | < 0.1 µg/mL | c1ccc(-c2ccc3ccc4ccc(-c5cccc(-c6ccc7ccc8ccc(-c9ccccc9)nc8c7n6)c5)nc4c3n2)cc1 [ADT-2] |
| 4.2 µg/mL (≈ 9.67 µM) | < 0.1 µg/mL | c1cnc2c(c1)ccc1ccc(-c3ccc(-c4ccc5ccc6cccnc6c5n4)cc3)nc12 [ADT-3] |
| 1.9 µg/mL (≈ 2.77 µM) | < 0.1 µg/mL | c1ccc2c(-c3ccc4ccc5ccc(-c6ccc(-c7ccc8ccc9ccc(-c%10cccc%11ccccc%10%11)nc9c8n7)cc6)nc5c4n3)cccc2c1 [ADT-4] |
| 4 µg/mL (≈ 8.25 µM) | < 0.1 µg/mL | c1cnc2c(c1)ccc1ccc(-c3ccc4ccc(-c5ccc6ccc7cccnc7c6n5)cc4c3)nc12 [ADT-5] |
| 4.5 µg/mL (≈ 9.29 µM) | < 0.1 µg/mL | c1cnc2c(c1)ccc1ccc(-c3cccc4c(-c5ccc6ccc7cccnc7c6n5)cccc34)nc12 [ADT-7] |
| 3.3 µg/mL (≈ 5.62 µM) | < 0.1 µg/mL | c1ccc(-c2ccc(-c3ccc4ccc5cccnc5c4n3)cc2)c(-c2ccc(-c3ccc4ccc5cccnc5c4n3)cc2)c1 [ADT-8] |
| 3.1 µg/mL (≈ 4.82 µM) | < 0.1 µg/mL | Cc1cc(C)cc(-c2ccc3ccc4ccc(-c5cccc(-c6ccc7ccc8ccc(-c9cc(C)cc(C)c9)nc8c7n6)c5)nc4c3n2)c1 [ADT-12] |
| 2.8 µg/mL (≈ 4.01 µM) | < 0.1 µg/mL | CC(C)(C)c1ccc(-c2ccc3ccc4ccc(-c5ccc(-c6ccc7ccc8ccc(-c9ccc(C(C)(C)C)cc9)nc8c7n6)cc5)nc4c3n2)cc1 [ADT-16] |
| < 0.1 µg/mL | < 0.1 µg/mL | c1cnc2c(c1)ccc1ccc(-c3ccc(C(c4ccc(-c5ccc6ccc7cccnc7c6n5)cc4)(c4ccc(-c5ccc6ccc7cccnc7c6n5)cc4)c4ccc(-c5ccc6ccc7cccnc7c6n5)cc4)cc3)nc12 [ADT-19] |
| 7.5 µg/mL (≈ 12.2 µM) | < 0.1 µg/mL | Nc1ccc(-c2ccc3ccc4ccc(-c5cccc(-c6ccc7ccc8ccc(-c9ccc(N)cc9)nc8c7n6)c5)nc4c3n2)cc1 [ADT-20] |

Further lines, the compound ahead of its results:

| Structure (SMILES) | solubility at 1 h (aqueous buffer) | solubility at 1 h (water) |
| --- | --- | --- |
| c1cc(-c2ccc3ccc4cccnc4c3n2)cc(-c2ccc3ccc4cccnc4c3n2)c1 [ADT-1] | 5 µg/mL (≈ 11.5 µM) | < 0.1 µg/mL |
| c1ccc(-c2ccc3ccc4ccc(-c5ccc6ccc(-c7ccc8ccc9ccc(-c%10ccccc%10)nc9c8n7)cc6c5)nc4c3n2)cc1 [ADT-6] | 2.6 µg/mL (≈ 4.08 µM) | < 0.1 µg/mL |
| c1cc(-c2ccc(-c3ccc4ccc5cccnc5c4n3)cc2)cc(-c2ccc(-c3ccc4ccc5cccnc5c4n3)cc2)c1 [ADT-9] | 3 µg/mL (≈ 5.11 µM) | < 0.1 µg/mL |
| c1cc(-c2cccc(-c3ccc4ccc5cccnc5c4n3)c2)cc(-c2cccc(-c3ccc4ccc5cccnc5c4n3)c2)c1 [ADT-10] | 3.6 µg/mL (≈ 6.14 µM) | < 0.1 µg/mL |
| CC(C)(C)c1ccc(-c2ccc3ccc4ccc(-c5cccc(-c6ccc7ccc8ccc(-c9ccc(C(C)(C)C)cc9)nc8c7n6)c5)nc4c3n2)cc1 [ADT-11] | 2.9 µg/mL (≈ 4.15 µM) | < 0.1 µg/mL |
| Cc1ccc(-c2ccc3ccc4ccc(-c5cccc(-c6ccc7ccc8ccc(-c9ccc(C)cc9)nc8c7n6)c5)nc4c3n2)cc1 [ADT-13] | 3.2 µg/mL (≈ 5.21 µM) | < 0.1 µg/mL |
| c1cc(-c2ccc3ccc4ccc(-c5cccc6ccccc56)nc4c3n2)cc(-c2ccc3ccc4ccc(-c5cccc6ccccc56)nc4c3n2)c1 [ADT-14] | 2.8 µg/mL (≈ 4.08 µM) | < 0.1 µg/mL |
| c1ccc(-c2ccc3ccc4ccc(-c5ccc(-c6ccc7ccc8ccc(-c9ccccc9)nc8c7n6)cc5)nc4c3n2)cc1 [ADT-15] | 2.5 µg/mL (≈ 4.26 µM) | < 0.1 µg/mL |
| c1cc(-c2cccc(-c3ccc4ccc5cccnc5c4n3)c2)cc(-c2ccc3ccc4cccnc4c3n2)c1 [ADT-17] | 4.6 µg/mL (≈ 9.01 µM) | < 0.1 µg/mL |
| c1cnc2c(c1)ccc1ccc(-c3cc(-c4ccc5ccc6cccnc6c5n4)cc(-c4ccc5ccc6cccnc6c5n4)c3)nc12 [ADT-18] | 1.3 µg/mL (≈ 2.12 µM) | < 0.1 µg/mL |
| O=S(=O)(O)c1ccc(-c2ccc3ccc4ccc(-c5cccc(-c6ccc7ccc8ccc(-c9ccc(S(=O)(=O)O)cc9)nc8c7n6)c5)nc4c3n2)cc1 [ADT-21] | 6.3 µg/mL (≈ 8.44 µM) | < 0.1 µg/mL |
